According to patent US8772321B2, “Heteroannelated anthraquinone derivatives for inhibiting cancers” (National Defense Medical Center, priority 2008, dated 2014):

How the values were obtained:
Assay in all cases: NCI 60-cell one dose screen
Assay type in all cases: cell-based, human
MDA-MB-231/ATCC = MDA-MB-231/ATCC (Breast cancer); 10^−5M
Method: (§1) NSC745885 was studied as a prototype for anti-proliferative activity against human cancer cell lines in NCI Drug Screen Program (Table 1, below). NSC745885 was evaluated in the full panel of human tumor cell lines derived from nine cancer cell types (leukemia, non-small cell lung cancer, colon cancer, CNS cancer, prostate cancer, melanoma, ovarian cancer, renal cancer and breast cancer). Each subpanel uses several cell lines and dose-response curves were drawn against the decadic logarithm (log 10) of the corresponding drug concentrations for each cell line by the subpanel group. They were also evaluated in the 60 cell line panel and anticancer assay was performed in accordance with the protocol of developmental therapeutics program (one dose mean graph). Results for each compound were reported as the proliferation percentage of the treated cells with that of the untreated control cells being 100. For each of these parameters the averaged values of mean graph midpoint (MG_MID) were calculated.

EKVX = EKVX (Non-small cell lung cancer); 10^−5M
Method: as §1

MDA-MB-435 = MDA-MB-435 (Breast cancer); 10^−5M
Method: as §1

SF-295 = SF-295 (CNS cancer); 10^−5M
Method: as §1

LOX IMVI = LOX IMVI (Melanoma); 10^−5M
Method: as §1

SK-MEL-2 = SK-MEL-2 (Melanoma); 10^−5M
Method: as §1

SN12C = SN12C (Renal cancer); 10^−5M
Method: as §1

A549/ATCC = A549/ATCC (Non-small cell lung cancer); 10^−5M; untreated control 100
Method: as §1

MDA-MB468 = MDA-MB468 (Breast cancer); 10^−5M
Method: as §1

RXF393 = RXF393 (Renal cancer); 10^−5M
Method: as §1

OVCAR-4 = OVCAR-4 (Ovarian cancer); 10^−5M
Method: as §1

SK-OV-3 = SK-OV-3 (Ovarian cancer); 10^−5M
Method: as §1

HCT-15 = HCT-15 (Colon cancer); 10^−5M
Method: as §1

COLO 205 = COLO 205 (Colon cancer); 10^−5M
Method: as §1

U251 = U251 (CNS cancer); 10^−5M
Method: as §1

SNB-75 = SNB-75 (CNS cancer); 10^−5M
Method: as §1

SNB-19 = SNB-19 (CNS cancer); 10^−5M
Method: as §1

NCI-H460 = NCI-H460 (Non-small cell lung cancer); 10^−5M
Method: as §1

ACHN = ACHN (Renal cancer); 10^−5M
Method: as §1

TK-10 = TK-10 (Renal cancer); 10^−5M
Method: as §1

KM12 = KM12 (Colon cancer); 10^−5M
Method: as §1

SF-268 = SF-268 (CNS cancer); 10^−5M
Method: as §1

T-47D = T-47D (Breast cancer); 10^−5M
Method: as §1

NCI/ADR-RES = NCI/ADR-RES (Ovarian cancer); 10^−5M
Method: as §1

MOLT-4 = MOLT-4 (Leukemia); 10^−5M
Method: as §1

HCC-2998 = HCC-2998 (Colon cancer); 10^−5M
Method: as §1

MALME-3M = MALME-3M (Melanoma); 10^−5M
Method: as §1

SW-620 = SW-620 (Colon cancer); 10^−5M
Method: as §1

786-0 = 786-0 (Renal cancer); 10^−5M
Method: as §1

HL-60(TB) = HL-60(TB) (Leukemia); 10^−5M
Method: as §1

K-562 = K-562 (Leukemia); 10^−5M
Method: as §1

SR = SR (Leukemia); 10^−5M
Method: as §1

SF-539 = SF-539 (CNS cancer); 10^−5M
Method: as §1

OVCAR-8 = OVCAR-8 (Ovarian cancer); 10^−5M
Method: as §1

SK-MEL-5 = SK-MEL-5 (Melanoma); 10^−5M
Method: as §1

NCI-H23 = NCI-H23 (Non-small cell lung cancer); 10^−5M
Method: as §1

O=C1c2ccccc2C(=O)c2c1ccc1nsnc21 [NSC745885, anthra[2,1-c][1,2,5]thiadiazole-6,11-dione]
proliferation percentage (MDA-MB-231/ATCC): −17.33%
proliferation percentage (EKVX): 103.18%
proliferation percentage (MDA-MB-435): −87.88%
proliferation percentage (SF-295): 126.17%
proliferation percentage (LOX IMVI): −50.63%
proliferation percentage (SK-MEL-2): −73.16%
proliferation percentage (SN12C): −73.27%
proliferation percentage (A549/ATCC): 104.18%
proliferation percentage (MDA-MB468): −73.17%
proliferation percentage (RXF393): 20.11%
proliferation percentage (OVCAR-4): −94.43%
proliferation percentage (SK-OV-3): 100.70%
proliferation percentage (HCT-15): 1.48%
proliferation percentage (COLO 205): 111.54%
proliferation percentage (U251): −89.26%
proliferation percentage (SNB-75): 79.03%
proliferation percentage (SNB-19): 78.98%
proliferation percentage (NCI-H460): 77.41%
proliferation percentage (ACHN): −94.31%
proliferation percentage (TK-10): 96.99%
proliferation percentage (KM12): 98.60%
proliferation percentage (SF-268): 16.29%
proliferation percentage (T-47D): −45.52%
proliferation percentage (NCI/ADR-RES): −2.53%
proliferation percentage (MOLT-4): −40.09%
proliferation percentage (HCC-2998): −0.74%
proliferation percentage (MALME-3M): −71.54%
proliferation percentage (SW-620): 7.30%
proliferation percentage (786-0): −25.98%
proliferation percentage (HL-60(TB)): −21.77%
proliferation percentage (K-562): 49.61%
proliferation percentage (SR): 4.96%
proliferation percentage (SF-539): −47.11%
proliferation percentage (OVCAR-8): −10.07%
proliferation percentage (SK-MEL-5): 8.52%
proliferation percentage (NCI-H23): 16.07%
